Results published in PMC11929900 (Communications Chemistry, 2025).

Biological target: h-cGAS (Homo sapiens, UniProt Q8N884)
Experiment: cGAS Kinase-Glo inhibition biochemical assay

h-cGAS, sequence (Q8N884 whole entry): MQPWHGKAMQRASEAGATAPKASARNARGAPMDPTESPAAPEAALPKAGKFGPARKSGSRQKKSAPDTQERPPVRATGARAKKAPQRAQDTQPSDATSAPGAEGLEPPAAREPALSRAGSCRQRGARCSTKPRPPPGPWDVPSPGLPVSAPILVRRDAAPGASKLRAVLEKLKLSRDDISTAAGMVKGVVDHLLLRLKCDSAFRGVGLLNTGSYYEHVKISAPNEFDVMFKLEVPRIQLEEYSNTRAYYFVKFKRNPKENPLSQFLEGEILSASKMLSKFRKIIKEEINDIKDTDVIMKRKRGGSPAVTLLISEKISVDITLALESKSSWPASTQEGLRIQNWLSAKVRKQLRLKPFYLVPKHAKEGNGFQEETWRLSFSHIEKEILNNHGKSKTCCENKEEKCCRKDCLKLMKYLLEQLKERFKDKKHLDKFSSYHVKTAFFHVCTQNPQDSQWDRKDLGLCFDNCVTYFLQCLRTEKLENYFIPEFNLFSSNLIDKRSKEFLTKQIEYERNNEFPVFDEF

In the case of `COCC(=O)N1CCc2[nH]c3c(Cl)c(Cl)ccc3c2C1(C)C` [Compound 3, 1-(6,7-dichloro-1,1-dimethyl-1,3,4,5-tetrahydro-2H-pyrido[4,3-b]indol-2-yl)-2-methoxyethan-1-one], the IC50 is reported as > 10 µM.
